In patent publication US4661516A, “Diaminocyclohexane platinum complexes” (Research Corporation, priority 1984, dated 1987):

Legend:
[1] = system: Wild type L1210 leukemic cells; test: In vitro cytotoxicity, wild type L1210 leukemic cells (L1210/0); type: cell-based; conditions: L1210, 72 hours incubation
Procedure: Four ml of cell suspension (10^5 cells/ml) are added to culture tubes and the appropriate concentration (0.01, 0.1, 1 or 10 μg/ml final concentration) of drug added to the culture tubes. After 72 hours of incubation, the cell concentration of control and experimental cultures are determined with the aid of a Coulter Counter® Model ZBf and the percent inhibition calculated. […]

L1210/0 leukemia cells = test: In vivo anti-tumor activity, L1210 (L1210/0), multiple i.p. doses; parameters: species or system BDF1 mice; conditions: for LTS: survivors/treated 50 days after treatment
Procedure: BDF1 mice were inoculated intraperitoneally with 10^6 L1210 cells. About 24 hours after inoculation of the cells, the mice were injected intraperitoneally with varying dosages of complexes of the present invention. Six mice were used for each dosage level in each experiment with an equal number of control mice inoculated with 10^6 L1210 cells and left untreated with a given complex. The results [%T/C=(survival time of treated animals/survival time of control animals)×100] are set forth below. Long term survival signifies that animals were alive 60 days after inoculation with L1210 cells.
The procedure of Example 16 was repeated except that the treated animals were injected with multiple doses of the complex as indicated below:
The anti-tumor activity of compound number 3 was evaluated against cells sensitive to (L1210/0) and resistant to (L1210/PDD) the standard platinum complex cis-diamminedichloroplatinum(II).
The following complexes were tested in vivo oncolytic activity following 3 i.p. injections (days 1, 5, 9) according to the protocol described in Examples 16 and 17.
BDF1 mice were innoculated intraperitoreally with 10^6 L1210 leukemia cells and treatment was begun on the next day (day 1). Two treatment schedules, i.e. single i.p. injection of the drug and i.p. injections on days 1, 5 and 9 according to the protocol described in Examples 16 and 17 were used.

L1210 cells = test: In vivo anti-tumor activity, L1210, single i.p. injection; parameters: species or system BDF1 mice; conditions: single i.p.
Procedure: About 24 hours after inoculation of the cells, the mice were injected intraperitoneally with varying dosages of complexes of the present invention. […] Long term survival signifies that animals were alive 60 days after inoculation with L1210 cells.

[2] = 6.25 mg/kg i.p., days 1, 5, 9, 30 day observation period
[3] = 12.5 mg/kg i.p., days 1, 5, 9, 30 day observation period
[4] = 25 mg/kg i.p., days 1, 5, 9, 30 day observation period

Compound	ID50 [1] [µg/mL]	% T/C (L1210 cells; 12.5 mg/kg) [%]	% T/C (L1210 cells; 25 mg/kg) [%]	% T/C (L1210 cells; 50 mg/kg)	other results
NC1CCCCC1N.O.O=C([O-])C1CCCC1.O=C([O-])C1CCCC1.[Pt+2] (stereo not drawn) [Compound 25, Cis-bis-cyclopentanecarboxylato(DACH)Pt(II).1H2 O]	0.3	161	178	163%	% T/C (L1210/0 leukemia cells; [2]): 202%; % T/C (L1210/0 leukemia cells; [3]): 246%; % T/C (L1210/0 leukemia cells; [4]): 253%
NC1CCCCC1N.O=C([O-])[C@@H]1CC[C@H]1C(=O)[O-].[Pt+2] [Compound 41, trans-1,2-cyclobutanedicarboxylato(DACH)Pt(II)]	0.5	–	–	–	–
NC1CCCCC1N.NCC(=O)[O-].NCC(=O)[O-].O.[Pt+2] (stereo not drawn) [Compound 32, Cis-bis-glycinato(DACH)Pt(II).1H2 O]	2.5	128	131	158%	–
NC1CCCCC1N.O.O=C([O-])C1CC1.O=C([O-])C1CC1.[Pt+2] (stereo not drawn) [Compound 29, Cis-bis-cyclopropanecarboxylato(DACH)Pt(II).1H2 O]	0.3	252	176	199%	LTS (L1210 cells; 12.5 mg/kg): 1/6; Long Term Survivors (LTS) (L1210 cells; 50 mg/kg, alive 60 days after inoculation): 1/6
NC1CCCCC1N.O.O=C([O-])C1(C(=O)[O-])CC1.[Pt+2] [Compound 20, cyclopropane-1,1-dicarboxylato(DACH)Pt(II).H2 O]	0.41	–	–	–	–
NC1CCCCC1N.O=C([O-])[C@@H]1CCC[C@H]1C(=O)[O-].[Pt+2] (racemic) [Compound 27, trans-DL-1,2-cyclopentanedicarboxylato(DACH)Pt(II)]	0.4	158	159	183%	–
NC1CCCCC1N.O.O=C([O-])CC1(CC(=O)[O-])CCCCC1.[Pt+2] [Compound 23, 1,1-cyclohexanediacetato(DACH)Pt(II).1H2 O]	0.6	–	–	–	–
NC1CCCCC1N.O.O.O=C([O-])C1=CC(O)C(O)C(O)C1.O=C([O-])C1=CC(O)C(O)C(O)C1.[Pt+2] (stereo not drawn) [Compound 10, cis-bis-shikimato(DACH)Pt(II).2H2 O]	–	–	–	140%	% T/C (L1210/0 leukemia cells; 12.5 mg/kg, days 1,5,9): 139%; % T/C (L1210/0 leukemia cells; 25 mg/kg, days 1,5,9): 149%; % T/C (L1210/0 leukemia cells; 50 mg/kg, days 1,5,9): 222%; Long Term Survivors (L1210/0 leukemia cells; 50 mg/kg, days 1,5,9): 1/6; % T/C (L1210 cells; 100 mg/kg): 217%; Long Term Survivors (L1210 cells; 100 mg/kg, alive 60 days after inoculation): 2/6
NC1CCCCC1N.O.O=C1CC(C(=O)[O-])C(C(=O)[O-])O1.[Pt+2] (racemic) [Compound 12, DL-isocitratolactone(DACH)Pt(II).1H2 O]	1.0	–	133	145%	% T/C (L1210/0 leukemia cells; 25 mg/kg, days 1,5,9): 219%; % T/C (L1210/0 leukemia cells; 50 mg/kg, days 1,5,9): 165%; % T/C (L1210 cells; 100 mg/kg): Toxic
NC1CCCCC1N.O=C([O-])CN(CCO)CCO.O=C([O-])CN(CCO)CCO.[Pt+2] [Compound 34, Cis-bis-bicinato(DACH)Pt(II)]	1.2	165	151	160%	–
NC1CCCCC1N.O.O.O=C([O-])C1CCCN1.O=C([O-])C1CCCN1.[Pt+2] [Compound 36, Cis-bis-L-prolinato(trans-R,R--DACH)Pt(II).2H2 O]	0.8	179	212	149%	Long Term Survivors (LTS) (L1210 cells; 25 mg/kg): 1/6
NC1CCCCC1N.O=C([O-])C1CC(O)CN1.O=C([O-])C1CC(O)CN1.[Pt+2] (mixture of isomers) [Compound 17, cis-bis-L-hyroxyprolinato(DACH)Pt(II).1H2 O]	2.7	–	160	170%	% T/C (L1210 cells; 100 mg/kg): Toxic
NC1CCCCC1N.O=C1OC(C(O)CO)C([O-])=C1O.O=C1OC(C(O)CO)C([O-])=C1O.[Pt+2] (stereo not drawn) [Compound 6, cis-bis-ascorbato(cis-DACH)Pt(II).5H2 O]	–	–	–	Toxic	ID50 ([1]; 4320 min): 4.0 µg/mL; % T/C (L1210 cells; 100 mg/kg): Toxic
NC1CCCCC1N.O=S(=O)([O-])CCCl.O=S(=O)([O-])CCCl.[Pt+2] (stereo not drawn) [Compound 33, Cis-bis-chloroethanesulfonato(DACH)Pt(II).1H 2 O]	0.3	188	144	Toxic	–
NC1CCCCC1N.O.O=C([O-])C1CCN1.O=C([O-])C1CCN1.[Pt+2] [Compound 15, cis-bis-L-azetidinecarboxylato(DACH)Pt(II).1H2 O]	3.6	157	148	161%	% T/C (L1210 cells; 100 mg/kg): Toxic
NC1CCCCC1N.O=C([O-])[C@@H]1C[C@H]1C(=O)[O-].[Pt+2] [Compound 40, trans-1,2-cyclopropanedicarboxylato(DACH)Pt(II)]	0.4	–	–	–	–
Cis-bis-cyclohexenecarboxylato(DACH)Pt(II).1H2 O [Compound 24]	1.0	–	132	165%	% T/C (L1210 cells; 100 mg/kg): 105%
NC1CCCCC1N.O.O.O=S(=O)([O-])CCO.O=S(=O)([O-])CCO.[Pt+2] (stereo not drawn) [Compound 13, cis-bis-isethionato(DACH)Pt(II).2H2 O]	0.43	–	–	Toxic	% T/C (L1210 cells; 5 mg/kg): 153%; % T/C (L1210 cells; 10 mg/kg): 180%; % T/C (L1210 cells; 20 mg/kg): 140%; animals died of apparent drug toxicity (L1210 cells; 20 mg/kg): 2/6; Long Term Survivors (L1210 cells; 20 mg/kg, alive 60 days after inoculation): 1/6
Cis-bis-cyclopentenecarboxylato(DACH)Pt(II).2H2 O [Compound 26]	1.3	185	158	157%	% T/C (L1210/0 leukemia cells; [2]): 189%; % T/C (L1210/0 leukemia cells; [3]): 356%; LTS (L1210/0 leukemia cells; 12.5 mg/kg, days 1, 5, 9): 1/6; % T/C (L1210/0 leukemia cells; [4]): 300%; LTS (L1210/0 leukemia cells; 25 mg/kg, days 1, 5, 9): 1/6
NC1CCCCC1N.O.O=C([O-])C1CCCCC1.O=C([O-])C1CCCCC1.[Pt+2] [Compound 22, Cis-bis-cyclohexanecarboxylato(DACH)Pt(II).1H2 O]	0.5	–	–	140%	% T/C (L1210 cells; 100 mg/kg): 170%
CCS(=O)(=O)[O-].CCS(=O)(=O)[O-].NC1CCCCC1N.O.[Pt+2] (stereo not drawn) [Compound 31, Cis-bis-ethanesulfonato(DACH)Pt(II).H2 O]	3.1	109	134	153%	% T/C (L1210/0 leukemia cells; 50 mg/kg i.p., days 1, 5, 9, 30 day observation period): 198%; LTS (L1210/0 leukemia cells; 50 mg/kg, days 1, 5, 9): 1/6; % T/C (L1210/0 leukemia cells; 100 mg/kg i.p., days 1, 5, 9, 30 day observation period): 295%; LTS (L1210/0 leukemia cells; 100 mg/kg, days 1, 5, 9): 2/6
NC1CCCCC1N.O.O=C([O-])C1CCCCN1.O=C([O-])C1CCCCN1.[Pt+2] (racemic) [Compound 18, cis-bis-DL-pipecolinato(DACH)Pt(II).1H2 O]	0.44	145	180	Toxic	–
NC1CCCCC1N.O.O.O=C([O-])CNCC(=O)[O-].[Pt+2] [Compound 35, Iminodiacetato(trans-R,R--DACH)Pt(II).2H2 O]	3.0	–	–	–	Long Term Survivors (L1210/0 leukemia cells; Tables X and XI, days 1, 5 and 9, at maximal effective dose, alive 60 days after tumor inoculation): 2/6; Maximal Effective Dose (L1210/0 leukemia cells; Tables X and XI, i.p. on days 1, 5 and 9): 25 mg/kg; % T/C (L1210/0 leukemia cells; Tables X and XI, i.p. on days 1, 5 and 9, at maximal effective dose): 437%
NC1CCCCC1N.O.O=C([O-])C1CCC1.O=C([O-])C1CCC1.[Pt+2] (stereo not drawn) [Compound 30, Cis-bis-cyclobutanecarboxylato(DACH)Pt.1H2 O]	0.4	149	154	145%	–
